In general, pIC50 refers to −log10 of the IC50, conventionally taken in molar units.

pIC50: −log10 of the molar value.

Type in all cases: biochemical
For one assay, the target named is GCN5 (Homo sapiens, UniProt Q92830). The assay is described as follows: HAT in vitro assay, GCN5. Conditions: substrate Histone H3; 3 μM Acetyl-CoA; 10-dose IC50 mode; read-out: IC50 GCN5 acetyltransferase. The procedure:
(§1) MC2884 activity was also tested in vitro and IC50 was calculated as indicated in the scheme. […] Reactions were carried out at 3 μM Acetyl-CoA. Empty cells indicate no inhibition or compound activity that could not be fit to an IC50 curve.

In a further assay the target is pCAF (Homo sapiens, UniProt Q92831). The assay is described as follows: HAT in vitro assay, pCAF. As to conditions: substrate Histone H3; 3 μM Acetyl-CoA; 10-dose IC50 mode; read-out: IC50 pCAF acetyltransferase. The procedure:
as §1

Another assay deals with KAT5 (Homo sapiens, UniProt Q92993). Briefly: HAT in vitro assay, KAT5. As to conditions: substrate Histone H2A; 3 μM Acetyl-CoA; 10-dose IC50 mode; read-out: IC50 KAT5 acetyltransferase. On the procedure:
as §1

The next assay concerns the target CBP (Homo sapiens, UniProt Q92793). The assay is described as follows: HAT in vitro assay, CBP. Conditions: substrate Histone H3; 3 μM Acetyl-CoA; 10-dose IC50 mode; read-out: IC50 CBP acetyltransferase. The procedure:
as §1

Sequence of pCAF (Q92831 whole entry): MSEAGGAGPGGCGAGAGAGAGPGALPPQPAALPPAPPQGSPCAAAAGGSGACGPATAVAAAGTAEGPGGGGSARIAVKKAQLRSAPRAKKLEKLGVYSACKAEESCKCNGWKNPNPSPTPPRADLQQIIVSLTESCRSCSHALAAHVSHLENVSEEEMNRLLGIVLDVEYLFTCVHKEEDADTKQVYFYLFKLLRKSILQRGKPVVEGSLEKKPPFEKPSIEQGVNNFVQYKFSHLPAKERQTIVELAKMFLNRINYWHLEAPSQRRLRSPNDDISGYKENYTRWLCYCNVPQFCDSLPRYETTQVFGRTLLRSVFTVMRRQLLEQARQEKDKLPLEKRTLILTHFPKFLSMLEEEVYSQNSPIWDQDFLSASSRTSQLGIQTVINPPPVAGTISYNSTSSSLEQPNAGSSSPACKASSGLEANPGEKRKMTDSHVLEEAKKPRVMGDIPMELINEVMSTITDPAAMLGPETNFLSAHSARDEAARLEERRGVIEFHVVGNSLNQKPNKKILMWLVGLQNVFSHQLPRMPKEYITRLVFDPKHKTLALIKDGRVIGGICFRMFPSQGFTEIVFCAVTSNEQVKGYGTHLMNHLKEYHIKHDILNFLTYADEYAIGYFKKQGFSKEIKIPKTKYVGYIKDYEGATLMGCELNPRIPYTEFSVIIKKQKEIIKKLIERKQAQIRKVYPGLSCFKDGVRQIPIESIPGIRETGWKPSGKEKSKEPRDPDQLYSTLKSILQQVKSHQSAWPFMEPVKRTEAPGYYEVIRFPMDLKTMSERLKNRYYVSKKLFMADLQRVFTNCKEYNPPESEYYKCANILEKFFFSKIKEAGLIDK
Sequence of GCN5 (Q92830 whole entry): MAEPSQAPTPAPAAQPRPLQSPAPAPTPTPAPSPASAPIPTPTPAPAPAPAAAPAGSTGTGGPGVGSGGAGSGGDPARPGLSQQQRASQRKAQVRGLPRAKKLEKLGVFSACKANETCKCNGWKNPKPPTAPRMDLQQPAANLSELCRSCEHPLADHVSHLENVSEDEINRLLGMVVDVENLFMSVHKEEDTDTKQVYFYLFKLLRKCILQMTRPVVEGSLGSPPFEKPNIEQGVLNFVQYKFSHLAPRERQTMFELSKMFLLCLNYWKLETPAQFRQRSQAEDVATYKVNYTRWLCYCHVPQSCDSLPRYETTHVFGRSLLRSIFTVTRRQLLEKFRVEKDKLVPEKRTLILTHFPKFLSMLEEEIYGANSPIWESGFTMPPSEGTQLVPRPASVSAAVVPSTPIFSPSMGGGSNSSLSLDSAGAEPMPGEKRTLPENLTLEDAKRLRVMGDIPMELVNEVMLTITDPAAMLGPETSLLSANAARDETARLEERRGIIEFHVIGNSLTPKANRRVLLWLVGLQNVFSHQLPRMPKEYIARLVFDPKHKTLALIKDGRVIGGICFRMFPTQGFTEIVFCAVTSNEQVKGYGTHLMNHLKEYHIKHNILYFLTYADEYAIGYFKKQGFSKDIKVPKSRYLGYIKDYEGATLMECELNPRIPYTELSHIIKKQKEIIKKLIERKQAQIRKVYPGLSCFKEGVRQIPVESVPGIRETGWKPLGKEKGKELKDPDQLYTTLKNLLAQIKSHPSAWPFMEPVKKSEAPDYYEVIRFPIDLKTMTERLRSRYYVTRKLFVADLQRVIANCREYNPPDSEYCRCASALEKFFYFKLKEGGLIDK
Sequence of CBP (Q92793 whole entry): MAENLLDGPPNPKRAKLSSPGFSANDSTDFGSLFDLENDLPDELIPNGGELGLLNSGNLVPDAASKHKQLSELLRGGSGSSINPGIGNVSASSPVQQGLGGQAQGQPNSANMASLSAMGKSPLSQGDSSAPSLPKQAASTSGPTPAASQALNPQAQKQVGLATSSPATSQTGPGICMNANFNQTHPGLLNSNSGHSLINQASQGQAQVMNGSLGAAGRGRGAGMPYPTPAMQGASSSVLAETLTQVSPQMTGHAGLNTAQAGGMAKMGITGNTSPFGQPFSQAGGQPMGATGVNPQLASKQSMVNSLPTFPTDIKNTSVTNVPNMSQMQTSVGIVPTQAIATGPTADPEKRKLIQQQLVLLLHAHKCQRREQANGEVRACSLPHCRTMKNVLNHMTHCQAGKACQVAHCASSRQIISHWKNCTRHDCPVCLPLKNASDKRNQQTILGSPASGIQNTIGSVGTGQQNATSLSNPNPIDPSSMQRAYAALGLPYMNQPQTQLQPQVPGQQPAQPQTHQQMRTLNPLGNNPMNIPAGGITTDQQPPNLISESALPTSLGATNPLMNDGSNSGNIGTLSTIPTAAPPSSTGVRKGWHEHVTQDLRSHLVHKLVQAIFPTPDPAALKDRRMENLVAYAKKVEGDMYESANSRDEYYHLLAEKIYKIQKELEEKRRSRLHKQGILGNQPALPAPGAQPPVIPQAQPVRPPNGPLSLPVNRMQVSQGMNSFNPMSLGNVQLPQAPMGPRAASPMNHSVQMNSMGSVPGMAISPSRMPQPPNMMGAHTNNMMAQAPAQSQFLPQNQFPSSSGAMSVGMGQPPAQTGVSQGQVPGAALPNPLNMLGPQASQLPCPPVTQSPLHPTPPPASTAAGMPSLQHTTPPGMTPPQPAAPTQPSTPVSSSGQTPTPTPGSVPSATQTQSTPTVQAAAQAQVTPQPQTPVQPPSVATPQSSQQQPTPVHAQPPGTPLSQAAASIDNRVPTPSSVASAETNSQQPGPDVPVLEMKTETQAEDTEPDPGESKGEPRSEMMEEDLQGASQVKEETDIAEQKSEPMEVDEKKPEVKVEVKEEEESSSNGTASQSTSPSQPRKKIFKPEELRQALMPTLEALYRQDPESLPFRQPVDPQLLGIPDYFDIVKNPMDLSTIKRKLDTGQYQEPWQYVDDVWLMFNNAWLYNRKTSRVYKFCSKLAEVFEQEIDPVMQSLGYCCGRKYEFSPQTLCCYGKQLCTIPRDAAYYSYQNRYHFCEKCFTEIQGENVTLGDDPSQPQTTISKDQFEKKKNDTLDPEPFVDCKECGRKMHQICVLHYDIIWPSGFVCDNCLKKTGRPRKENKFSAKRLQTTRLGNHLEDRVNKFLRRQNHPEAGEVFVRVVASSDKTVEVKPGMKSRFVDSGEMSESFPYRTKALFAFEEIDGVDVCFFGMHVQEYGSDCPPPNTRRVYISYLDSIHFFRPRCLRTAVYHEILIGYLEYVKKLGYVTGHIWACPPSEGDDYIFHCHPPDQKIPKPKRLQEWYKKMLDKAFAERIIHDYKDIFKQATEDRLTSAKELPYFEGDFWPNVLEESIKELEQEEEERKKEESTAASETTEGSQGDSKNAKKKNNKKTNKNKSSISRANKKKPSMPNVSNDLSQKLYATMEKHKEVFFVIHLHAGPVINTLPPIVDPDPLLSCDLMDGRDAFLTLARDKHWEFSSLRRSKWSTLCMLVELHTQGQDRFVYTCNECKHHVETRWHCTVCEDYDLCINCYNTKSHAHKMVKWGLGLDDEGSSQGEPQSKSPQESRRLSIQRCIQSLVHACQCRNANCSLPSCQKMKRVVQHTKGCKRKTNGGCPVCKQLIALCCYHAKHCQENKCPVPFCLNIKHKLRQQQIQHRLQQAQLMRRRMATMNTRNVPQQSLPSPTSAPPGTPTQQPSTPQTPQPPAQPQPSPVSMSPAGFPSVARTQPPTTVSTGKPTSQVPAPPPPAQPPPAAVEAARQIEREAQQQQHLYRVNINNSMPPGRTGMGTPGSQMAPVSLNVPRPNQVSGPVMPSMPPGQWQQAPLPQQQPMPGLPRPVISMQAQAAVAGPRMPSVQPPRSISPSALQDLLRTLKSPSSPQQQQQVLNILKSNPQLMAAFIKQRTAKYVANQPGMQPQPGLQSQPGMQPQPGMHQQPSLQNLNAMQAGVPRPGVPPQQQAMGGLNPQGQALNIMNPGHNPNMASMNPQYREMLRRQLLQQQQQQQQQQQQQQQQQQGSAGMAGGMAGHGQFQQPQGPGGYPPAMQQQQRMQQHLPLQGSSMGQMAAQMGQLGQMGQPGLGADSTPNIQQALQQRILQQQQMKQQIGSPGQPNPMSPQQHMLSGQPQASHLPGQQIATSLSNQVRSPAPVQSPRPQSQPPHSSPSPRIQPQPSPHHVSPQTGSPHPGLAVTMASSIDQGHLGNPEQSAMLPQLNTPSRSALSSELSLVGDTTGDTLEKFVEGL
Sequence of KAT5 (Q92993 whole entry): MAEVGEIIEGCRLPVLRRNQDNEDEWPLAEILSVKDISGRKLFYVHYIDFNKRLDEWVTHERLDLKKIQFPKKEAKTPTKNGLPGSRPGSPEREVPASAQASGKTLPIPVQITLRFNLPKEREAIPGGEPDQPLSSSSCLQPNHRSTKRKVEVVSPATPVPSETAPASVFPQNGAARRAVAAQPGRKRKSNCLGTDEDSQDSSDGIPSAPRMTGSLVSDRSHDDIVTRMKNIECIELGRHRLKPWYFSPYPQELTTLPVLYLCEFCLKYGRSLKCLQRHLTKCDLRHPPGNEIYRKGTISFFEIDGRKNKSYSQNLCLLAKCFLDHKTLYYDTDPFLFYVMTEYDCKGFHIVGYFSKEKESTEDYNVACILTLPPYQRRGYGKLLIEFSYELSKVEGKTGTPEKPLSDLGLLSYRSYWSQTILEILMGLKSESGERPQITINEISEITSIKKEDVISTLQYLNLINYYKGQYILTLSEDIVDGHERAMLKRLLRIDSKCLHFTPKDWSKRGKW

For `CCCCCCCCCCCCCCCc1cccc(O)c1C(=O)O` [Anacardic Acid], the pIC50 at GCN5 and at pCAF was 4.41 each time.
Take `CC1=NN(c2ccc(C(=O)O)cc2)C(=O)/C1=C\c1ccc(-c2cc(C)c(C)cc2[N+](=O)[O-])o1` [C646]: the pIC50 at KAT5 was 4.69; on CBP, 7.10.

Source of the values: patent US20190284635A1, “METHOD FOR THE PROGNOSIS AND/OR TREATMENT OF ACUTE PROMYELOCYTIC LEUKEMIA” (EPI-C S.R.L., priority 2016, published 2019).
